Test results as given in PubChem BioAssay (NCI).
Where “and” joins values, the source holds several entries; their conditions need not be identical. Equal entries are not always repeated.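 Each compound was tested at five concentrations against cells in 96-well plates for 48 hours. GI50: concentration for 50% inhibition of growth. TGI: concentration producing complete growth inhibition.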

How the values were obtained:
Test in all cases: NCI tumour cell line growth inhibition, 48 h
DU-145 prostate = tested on: DU-145 prostate
HCT-15 colon = tested on: HCT-15 colon
MDA-MB-231 breast = tested on: MDA-MB-231 breast
NCI-H460 lung = tested on: NCI-H460 lung
OVCAR-5 ovarian = tested on: OVCAR-5 ovarian
SN12C renal = tested on: SN12C renal
SW-620 colon = tested on: SW-620 colon
T-47D breast = tested on: T-47D breast
TK-10 renal = tested on: TK-10 renal
UO-31 renal = tested on: UO-31 renal

SMILES | GI50 (DU-145 prostate) | TGI (DU-145 prostate) | GI50 (HCT-15 colon) | TGI (HCT-15 colon) | GI50 (MDA-MB-231 breast) | TGI (MDA-MB-231 breast) | GI50 (NCI-H460 lung) | TGI (NCI-H460 lung) | TGI (OVCAR-5 ovarian) | GI50 (SN12C renal) | TGI (SN12C renal) | TGI (SW-620 colon) | GI50 (T-47D breast) | TGI (T-47D breast) | GI50 (TK-10 renal) | TGI (TK-10 renal) | GI50 (UO-31 renal) | TGI (UO-31 renal) | GI50 (OVCAR-5 ovarian) | GI50 (SW-620 colon)
CCN(CC)CCCC(C)Nc1ccnc2cc(Cl)ccc12 (configuration not stated) | > 100 µM | > 100 µM | 57.9 µM | > 100 µM | > 100 µM | > 100 µM and 73.4 µM | 66.6 µM | > 100 µM | > 100 µM | > 100 µM | > 100 µM and 97.1 µM | > 100 µM | > 100 µM | > 100 µM and 64.1 µM | 42.1 µM | > 100 µM | 84.8 µM | > 100 µM and 46.4 µM |  | 
CC1=CC(C)=NN=C(N)N1S(=O)(=O)c1cc(C)c(Cl)cc1SCc1ccccc1 | 73.4 µM | > 100 µM | 7.86 µM | > 100 µM | > 100 µM | > 100 µM | 9.22 µM | > 100 µM | > 100 µM | 32.2 µM | > 100 µM | > 100 µM | 4.21 µM | 79.1 µM | > 100 µM | > 100 µM | 5.18 µM | > 100 µM | > 100 µM | 24.8 µM
Cc1c(O)c(N=Nc2nc3ccccc3s2)c2ccccc2c1O | 23.4 µM | > 50 µM | 23.3 µM | > 50 µM | 26.5 µM | > 50 µM | 28 µM | > 50 µM | > 50 µM | 16.7 µM | > 50 µM | > 50 µM | 39.2 µM | > 50 µM | > 50 µM | > 50 µM | 18.8 µM | > 50 µM | > 50 µM | 25.9 µM
O=C1C(=C(C(F)(F)Cl)C(F)(F)Cl)C2CCC1C2 (configuration not stated) |  | > 10 µM |  | 3.97 µM |  | 3.07 µM |  | > 7.96 µM | > 10 µM |  | 3.61 µM | 3.98 µM |  | 4.58 µM |  | 4.29 µM |  | > 6.47 µM |  | 
CCCc1n(Cc2ccc3ccccc3c2)cc[n+]1Cc1ccc2ccccc2c1 | 1.49 µM | 7.25 µM | 3.69 µM | 16.1 µM | 1.06 µM | 2.54 µM | 1.22 µM | 3.01 µM | 3.32 µM | 1.07 µM | 2.53 µM | 3.33 µM | 0.377 µM | 3.17 µM | 1.28 µM | 2.7 µM | 2.56 µM | 11.6 µM | 1.43 µM | 1.34 µM
CSc1c(C2=C(c3cn(C)c4ccccc34)C(=O)NC2=O)c2ccccc2n1C | 1.13 µM | > 25 µM | 0.755 µM | > 25 µM | 2.57 µM | > 25 µM | 0.832 µM | > 25 µM | > 25 µM | 1.49 µM | > 25 µM | > 25 µM | 1.15 µM | > 25 µM | 0.606 µM | > 25 µM | 0.703 µM | > 19.4 µM | 23.4 µM | 0.736 µM
CCCCC(CCCCCC(CCCC)NCc1ccc2c(c1)OCO2)NCc1ccc2c(c1)OCO2 (configuration not stated) | 0.803 µM | 2.04 µM | 0.326 µM | 1.09 µM | 0.539 µM | 1.83 µM | 0.236 µM | 0.519 µM | 3.08 µM | 1.42 µM | 2.96 µM | 0.437 µM | 0.315 µM | 0.933 µM | 1.43 µM | 2.88 µM | 0.481 µM | 1.16 µM | 1.66 µM | 0.206 µM
Cc1ccc2oc(=O)cc(/C(=C3/C=CC=N3)c3ccc[nH]3)c2c1 | 0.361 µM | 10.8 µM | 0.298 µM | 10.1 µM | 0.802 µM | 3.07 µM | 0.353 µM | 3.52 µM | 12.7 µM | 0.672 µM | 3.36 µM | 13.7 µM | 0.445 µM | 7.66 µM | 0.47 µM | 4.87 µM | 0.45 µM | 5.11 µM | 0.901 µM | 0.396 µM
COc1cc(Oc2c(C)c(Cl)c(OC)c(Cl)c2OC)c2c(c1Cl)COC2=O |  | > 100 µM |  | > 100 µM |  | > 100 µM |  | > 100 µM | > 100 µM |  | 59.7 µM | > 100 µM |  | > 100 µM |  | > 100 µM |  | > 100 µM |  | 
CCCCCCCCCCCCCCCCCc1nccn1CCOCCO | 5.34 µg/mL | 10.4 µg/mL | 6.36 µg/mL | 12.2 µg/mL | 4.4 µg/mL | 9.29 µg/mL | 5.66 µg/mL | 11.9 µg/mL | 11.2 µg/mL | 5.11 µg/mL | 10.1 µg/mL | 11.7 µg/mL | 2.99 µg/mL | 8.99 µg/mL | 5.31 µg/mL | 10.4 µg/mL | 5.68 µg/mL | 11.6 µg/mL | 5.86 µg/mL | 6.19 µg/mL
COc1ccc(C#Cc2ccc(=O)oc2-c2cc(OC)c(OC)c(OC)c2)cc1O | 8.96 µM | > 85.9 µM | 2.86 µM | > 100 µM | 6.25 µM | > 100 µM | 0.973 µM | > 100 µM | > 100 µM | 20.7 µM | > 100 µM | > 100 µM |  | > 100 µM | 21.8 µM | > 100 µM | 11.1 µM | > 79.8 µM | 24 µM | 1.22 µM
O=C(CC1(O)C(=O)N(Cc2ccccc2)c2ccc(Cl)cc21)c1ccc(C(=O)NCC2CCC3(CC2)OOC2(CCCCC2)OO3)cc1 (configuration not stated) | 0.179 µM | 0.326 µM | 0.573 µM | 2.43 µM | 0.327 µM | 0.988 µM | 0.231 µM | 0.491 µM | 6.28 µM | 0.797 µM | 2.38 µM | 5.88 µM | 0.653 µM | 3.38 µM | 0.181 µM | 0.358 µM | 0.134 µM | 0.289 µM | 0.644 µM | 2.21 µM
Cn1c(=O)c(Oc2ccc(F)cc2F)cc2cnc(NC(C)(C)CO)nc21 | > 25 µM | > 25 µM | > 25 µM | > 25 µM | > 25 µM | > 25 µM | > 25 µM | > 25 µM | > 25 µM | > 25 µM | > 25 µM | > 25 µM | 13.7 µM | > 25 µM | > 25 µM | > 25 µM | 6.65 µM | > 13.4 µM | > 25 µM | > 25 µM
